Test results: patent US8614194B1, “Anionic cell penetrating peptide and its use for intracellular delivery” (Kaohsiung Medical University, priority 2012, dated 2013)
No end group written: not given here.

Key:
Format in all cases: cell-based, human
HeLa cells [1] = test: Endocytosis inhibition analysis (uptake with inhibitors); details: 10 μM, 37° C., 30 minutes, inhibitors NaN3 and 2DG, EIPA, NaClO3, FIG. 8(A)
Protocol: For inhibition of endocytosis, HeLa cells are treated with 200 mM sodium azide (NaN3; Sigma) and 2-deoxy-D-glucose (2DG; Sigma) for 1 hour to deplete intracellular ATP pools and influence cell metabolism. hADSCs are treated with 10 mM NaN3 and 2DG for 1 h with the same purpose. For inhibition of macropinosome formation, HeLa cells and hADSCs are treated with 3 mM 5-(N-ethyl-N-isopropyl) amiloride (EIPA, Sigma) for 10 minutes. For inhibition of proteoglycan sulfation, HeLa cells and hADSCs are treated with 600 mM sodium chlorate (NaClO3, Sigma) for 2 days. After this treatment of inhibitors, cells are treated with 10 μM test compound (200 μl), and then incubated at 37° C. for 30 minutes. 10^4 cells in 0.1 ml medium are seeded into each well of a 24-well plate, and then trypsin (200 μl) is added into each well. Cells are transferred to a microtube and incubated for 5 minutes. Cells are processed for flow cytometry as described above after being added with 200 μl of medium and washed with PBS.

HeLa cells [2] = test: Fluorescence microscopy of translocation into cells; details: FITC-labeled, 10 μM, 30 minutes, 37° C., FIG. 4
Protocol: (§1) Cells are treated with 10 μM test compound for 30 minutes at 37° C., washed using PBS, and then treated with 0.5% trypsin. Cells are labeled with 5 μg/ml Hoechst 33342 (Invitrogen) and PKH26-GL (Sigma) respectively for nuclei and membrane labeling. Standard protocols are followed according to the kit instructions. Cells are lastly suspended again in PBS for fluorescence images. Fluorescence images are captured by Olympus, CellR and Olympus FV1000 confocal microscope using glass-bottom culture slides with excitation by 488 nm (FITC-labeled peptide) laser line.

hADSCs = test: as above; details: FITC-labeled, 10 μM, 30 minutes, 37° C., FIG. 5
Protocol: as §1

Substance	route of internalization, uptake combined with inhibitors (HeLa cells [1])	translocation into cells (HeLa cells [2])	translocation into cells (hADSCs)
6-aminocaproic acid-R7 [ACP-R7]	internalized by macropinocytosis, endocytosis, and direct translocation resulted from proteoglycan sulfation	crosses into HeLa cells	crosses into ADSCs
AAAADD [A4D2, four alanine residues linked to the N terminal of two aspartate residues]			crosses into ADSCs
AADDDD [A2D4, two alanine residues linked to the N terminal of four aspartate residues]			crosses into ADSCs
DDDDDD [D6, peptide of six aspartate residues]			crosses into ADSCs
KD6K-simvastatin: peptide KDDDDDDK carrying simvastatin and PEG500; Lys capped by acetic anhydride or FITC (also: carries simvastatin and PEG500, Lys capped by acetyl or FITC)			crosses into ADSCs
KDDDDDD [KD6, one lysine residue linked to the N terminal of six aspartate residues]			crosses into ADSCs
